pEC50: −log10 of the molar value.

The target of this assay is T1, human M4 muscarinic acetylcholine receptor (Homo sapiens, UniProt P08173).
T1 construct: expressed in transfected cells; host or cells: CHO-K1
T1 sequence (P08173 1-479): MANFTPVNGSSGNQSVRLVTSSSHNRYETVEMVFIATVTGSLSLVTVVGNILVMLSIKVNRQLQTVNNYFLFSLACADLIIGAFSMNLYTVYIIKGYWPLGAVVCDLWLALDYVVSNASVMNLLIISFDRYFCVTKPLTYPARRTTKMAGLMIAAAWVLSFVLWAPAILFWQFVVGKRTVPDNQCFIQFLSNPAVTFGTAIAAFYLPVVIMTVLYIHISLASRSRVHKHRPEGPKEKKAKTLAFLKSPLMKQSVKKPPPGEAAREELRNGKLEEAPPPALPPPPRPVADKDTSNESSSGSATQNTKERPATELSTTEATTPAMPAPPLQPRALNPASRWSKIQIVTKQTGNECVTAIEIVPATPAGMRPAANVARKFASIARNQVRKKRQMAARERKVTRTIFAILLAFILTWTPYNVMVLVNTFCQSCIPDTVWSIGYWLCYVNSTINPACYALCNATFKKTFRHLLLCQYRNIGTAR
The experiment in a line: human FLIPR-based M4 PAM assay (Ca2+ mobilization, CHO-K1 cells with human M4 receptor and Gαqi5). The class given is cell-based. The following applies: acetylcholine at 20% of maximum response, read-out: M4 PAM IP. The protocol: In a typical experiment the M4 muscarinic acetylcholine receptor modulating activity of the compounds of the present invention was determined in accordance with the following experimental method. CHO-K1 cells stably transfected with human M4 receptor and chimeric G-protein Gαqi5 (Coward P, et al., Analytical Biochemistry, 270:242-248 (1999)) are thawed from liquid N2 storage, resuspended in growth medium, plated in black, clear bottom 384 well plates, and incubated 16-20 hours at 37° C., 5% CO2. On the day of assay, growth medium is removed, the cells are washed 2 times with wash buffer, and cells are incubated in dye loading buffer at 37° C., 5% CO2 for ˜1 hour. […] Next, 10 uL of acetylcholine is added (final concentration calculated so as to achieve 20% of the maximum acetycholine response), and the fluorescence reading is continued for 3.5 min. In some cases, a third addition of acetylcholine (final concentration calculated to achieve 70% of the maximal acetylcholine response) is performed. The resulting dose response curves are fit to a 4 parameter logistic equation and the final result is determined as the inflection point (IP) of the curve
CHO-K1 cells stably transfected with human M4 receptor and chimeric G-protein Gαqi5 are thawed from liquid N2 storage, resuspended in growth medium, plated in black, clear bottom 384 well plates, and incubated 16-20 hours at 37° C., 5% CO2.
On the day of assay, growth medium is removed, the cells are washed 2 times with wash buffer, and cells are incubated in dye loading buffer at 37° C., 5% CO2 for ˜1 h. […] Next, 10 uL of acetylcholine is added (final concentration calculated so as to achieve 20% of the maximum acetycholine response), and the fluorescence reading is continued for 3.5 min. In some cases, a third addition of acetylcholine (final concentration calculated to achieve 70% of the maximal acetylcholine response) is performed.
For `Cc1cc2c(nc1N1CCC(Oc3ccc4c(c3)C[C@@H](O)C4)CC1)CNC2=O` (single isomer, unassigned) [Example 324A], the pEC50 is 7.66.
In the case of `Cc1cc2c(nc1N1CCC(Oc3ccc4c(c3)C[C@H](O)C4)CC1)CNC2=O` (single isomer, unassigned) [Example 324B] it was 7.55.
With `Cc1cc2c(nc1N1CCC(Oc3cnc4c(c3)CC[C@@H]4O)CC1)CNC2=O` (single isomer, unassigned) [Example 324C], the pEC50 is 5.94.
In the case of `Cc1cc2c(nc1N1CCC(Oc3cnc4c(c3)CC[C@H]4O)CC1)CNC2=O` (single isomer, unassigned) [Example 324D] it was 6.17; in that of `Cc1c(N2CCC(OC[C@@]3(C)CC3(F)F)CC2)nc2c(c1C)C(=O)NC2` (single isomer, unassigned) [Example 329A], 7.33; in that of `Cc1c(N2CCC(Oc3ccc4c(c3)COC4)CC2)nc2c(c1C)C(=O)N(C)[C@@H]2CO` (single isomer, unassigned) [Example 337A], 7.70.
Regarding `Cc1c(N2CCC(Oc3ccc4c(c3)COC4)CC2)nc2c(c1C)C(=O)N(C)[C@H]2CO` (single isomer, unassigned) [Example 337B], the pEC50 was 6.06.
For `Cc1c(N2CCC(Oc3ccc4c(c3)COCC4)CC2)nc2c(c1C)C(=O)N(C)[C@@H]2CO` (single isomer, unassigned) [Example 337C] the value was 7.38; for `Cc1c(N2CCC(Oc3ccc4c(c3)COCC4)CC2)nc2c(c1C)C(=O)N(C)[C@H]2CO` (single isomer, unassigned) [Example 337D], 6.21.
With `CCc1cc2c(nc1N1CC[C@@H](OCC3(C)CC3)C(F)(F)C1)CNC2=O` (single isomer, unassigned) [Example 374A], the pEC50 is 6.38.
For the molecule `CCc1cc2c(nc1N1CC[C@H](OCC3(C)CC3)C(F)(F)C1)CNC2=O` (single isomer, unassigned) [Example 374B], the pEC50 is 7.35.
On to `COCCOc1ccc(O[C@H]2CCN(c3nc4c(cc3C)C(=O)NC4)C[C@H]2F)cn1` (stereo in doubt) [Example 61, 2-((3R,4S)-3-fluoro-4-((6-(2-methoxyethoxy)pyridin-3-yl)oxy)piperidin-1-yl)-3-methyl-6,7-dihydro-5H-pyrrolo[3,4-b]pyridin-5-one], for which the pEC50 was 6.87.
For `COc1ccc(OC2CCN(c3nc4c(cc3C)C(=O)NC4)CC2)cn1` [Example 1, 2-(4-((6-methoxypyridin-3-yl)oxy)piperidin-1-yl)-3-methyl-6,7-dihydro-5H-pyrrolo[3,4-b]pyridin-5-one] the value was 7.57; for `Cc1cc2c(nc1N1CCC(Oc3cccc(C#N)c3)CC1)CNC2=O` [Example 3, 3-((1-(3-methyl-5-oxo-6,7-dihydro-5H-pyrrolo[3,4-b]pyridin-2-yl)piperidin-4-yl)oxy)benzonitrile], 7.60; for `Cc1cc2c(nc1N1CCC(Oc3ccc4c(cnn4C)c3)CC1)CNC2=O` [Example 4, 3-methyl-2-(4-((1-methyl-1H-indazol-5-yl)oxy)piperidin-1-yl)-6,7-dihydro-5H-pyrrolo[3,4-b]pyridin-5-one], 7.31.
`Cc1cc2c(nc1N1CCC(OC(F)F)CC1)CNC2=O` [Example 4A, 2-(4-(difluoromethoxy)piperidin-1-yl)-3-methyl-6,7-dihydro-5H-pyrrolo[3,4-b]pyridin-5-one]: the pEC50 is 5.56.
As for `Cc1cc2c(nc1N1CCC(Oc3ccccc3)CC1)CNC2=O` [Example 5, 3-methyl-2-(4-phenoxypiperidin-1-yl)-6,7-dihydro-5H-pyrrolo[3,4-b]pyridin-5-one], the pEC50 was 7.68.
Take `CCc1cc2c(nc1N1CC[C@@H](Oc3ccc4c(cnn4C)c3)[C@@H](F)C1)CNC2=O` [Example 5A, 3-ethyl-2-((3S,4R)-3-fluoro-4-((1-methyl-1H-indazol-5-yl)oxy)piperidin-1-yl)-6,7-dihydro-5H-pyrrolo[3,4-b]pyridin-5-one]: the pEC50 is 6.92.
In the case of `CCc1cc2c(nc1N1CC[C@H](OCC3(C)CC3)[C@@H](F)C1)CNC2=O` [Example 6A, 3-ethyl-2-((3S,4S)-3-fluoro-4-((1-methylcyclopropyl)methoxy)piperidin-1-yl)-6,7-dihydro-5H-pyrrolo[3,4-b]pyridin-5-one] it was 6.82.
In the case of `Cc1cc2c(nc1N1CC[C@@H](Oc3ccc4[nH]ncc4c3)[C@@H](F)C1)CNC2=O` [Example 8, 2-((3S,4R)-4-((1H-indazol-5-yl)oxy)-3-fluoropiperidin-1-yl)-3-methyl-6,7-dihydro-5H-pyrrolo[3,4-b]pyridin-5-one] it was 7.85; in that of `Cc1cc2c(nc1N1CCC(OC[C@@]3(C)CC3(F)F)CC1)CNC2=O` [Example 8A, (R)-2-(4-((2,2-difluoro-1-methylcyclopropyl)methoxy)piperidin-1-yl)-3-methyl-6,7-dihydro-5H-pyrrolo[3,4-b]pyridin-5-one], 7.06; in that of `Cc1cc2c(nc1N1CCC(OC[C@]3(C)CC3(F)F)CC1)CNC2=O` [Example 8B, (S)-2-(4-((2,2-difluoro-1-methylcyclopropyl)methoxy)piperidin-1-yl)-3-methyl-6,7-dihydro-5H-pyrrolo[3,4-b]pyridin-5-one], 6.30.
In the case of `Cc1cc2c(nc1N1CCC(OCC3CC3)CC1)CNC2=O` [Example 9, 2-(4-(cyclopropylmethoxy)piperidin-1-yl)-3-methyl-6,7-dihydro-5H-pyrrolo[3,4-b]pyridin-5-one] it was 7.08.
Turning to `Cc1cc2c(nc1N1CCC(Oc3ccc4c(c3)C(=O)N(C3CC3)C4)CC1)CNC2=O` [Example 10, 2-(4-((2-cyclopropyl-3-oxoisoindolin-5-yl)oxy)piperidin-1-yl)-3-methyl-6,7-dihydro-5H-pyrrolo[3,4-b]pyridin-5-one], the pEC50 is 6.75.
For `Cc1cc2c(nc1N1CCC(Oc3cccc(C#N)c3)CC1)CN(C)C2=O` [Example 11, 3-((1-(3,6-dimethyl-5-oxo-6,7-dihydro-5H-pyrrolo[3,4-b]pyridin-2-yl)piperidin-4-yl)oxy)benzonitrile] the value was 7.42; for `Cc1cc2c(nc1N1CCC(Oc3ccc4[nH]ncc4c3)CC1)CN(C)C2=O` [Example 12, 2-(4-((1H-indazol-5-yl)oxy)piperidin-1-yl)-3,6-dimethyl-6,7-dihydro-5H-pyrrolo[3,4-b]pyridin-5-one], 7.80.
For `Cc1cc2c(nc1N1CCC(Oc3cccc(C#N)c3)CC1)C(C)N(C)C2=O` (centres unmarked) [Example 13, 3-((1-(3,6,7-trimethyl-5-oxo-6,7-dihydro-5H-pyrrolo[3,4-b]pyridin-2-yl)piperidin-4-yl)oxy)benzonitrile] the value was 6.76.
On to `Cc1cc2c(nc1N1CCC(Oc3ccc4[nH]ncc4c3)CC1)C(C)N(C)C2=O` (centres unmarked) [Example 14, 2-(4-((1H-indazol-5-yl)oxy)piperidin-1-yl)-3,6,7-trimethyl-6,7-dihydro-5H-pyrrolo[3,4-b]pyridin-5-one], for which the pEC50 is 7.28.
Turning to `Cc1cc2c(nc1N1CCC(Oc3cccc(C#N)c3)CC1)C(C)(C)N(C)C2=O` [Example 15, 3-((1-(3,6,7,7-tetramethyl-5-oxo-6,7-dihydro-5H-pyrrolo[3,4-b]pyridin-2-yl)piperidin-4-yl)oxy)benzonitrile], the pEC50 is 5.70.
Consider `COc1ccc(OC2CCN(c3nc4c(cc3C)C(=O)N(C)C4C)CC2)cn1` (centres unmarked) [Example 16, 2-(4-((6-methoxypyridin-3-yl)oxy)piperidin-1-yl)-3,6,7-trimethyl-6,7-dihydro-5H-pyrrolo[3,4-b]pyridin-5-one], for which the pEC50 is 7.09.
Consider `COc1ccc(OC2CCN(c3nc4c(cc3C)C(=O)N(C)C4(C)C)CC2)cn1` [Example 17, 2-(4-((6-methoxypyridin-3-yl)oxy)piperidin-1-yl)-3,6,7,7-tetramethyl-6,7-dihydro-5H-pyrrolo[3,4-b]pyridin-5-one], for which the pEC50 was 5.93.
In the case of `COc1ccc(OC2CCN(c3nc4c(cc3C)C(=O)N(C)C4)CC2)cn1` [Example 18, 2-(4-((6-methoxypyridin-3-yl)oxy)piperidin-1-yl)-3,6-dimethyl-6,7-dihydro-5H-pyrrolo[3,4-b]pyridin-5-one] it was 7.44.

The record behind these values is patent publication US10329289B2, “6,7-dihydro-5H-pyrrolo[3,4-B]pyridin-5-one allosteric modulators of the M4 muscarinic acetylcholine receptor” (Merck Sharp & Dohme Corp., priority 2015, dated 2019).
